Experimental data as given in the NIST ThermoML archive (doi:10.1021/acs.jced.9b00286).
Numbers after ± are expanded uncertainties.

Conditions: Crystal; DSC

- Triple point temperature: 429.75 ± 1.2 K
SMILES: OCc1ccc(O[C@@H]2O[C@H](CO)[C@@H](O)[C@H](O)[C@H]2O)cc1 [gastrodin]
